Experiments:
KRas G12D = KRas G12D (Homo sapiens, UniProt P01116, G12D); test: biochemical;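 further: TR-FRET displacement binding assay on KRas, read after a one-hour incubation at room temperature, IC50 fitted from percent-of-control values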
Description: (§1) The ability of a compound to bind to KRas was measured using a TR-FRET displacement assay. […] After a 60-minute incubation at room temperature, the reaction was measured using a BMG LABTECH CLARIO star Plus via TR-FRET. […] The POC values were fit to a 4-parameter IC50 equation and the IC50 value reported.

pERK in ASPC1 cells = test: Inhibition of KRas phosphorylation of ERK (Cisbio HTRF pERK assay); settings: Homo sapiens, ASPC1, read-out: Inhibition (HTRF IC50) of KRas-mediated Phosphorylation of ERK, AsPC-1
KRas G12V = KRas G12V (Homo sapiens, UniProt P01116, G12V); test: biochemical;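 further: KRas binding measured by TR-FRET displacement at room temperature, IC50 fitted from percent of control values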
Chain of KRas G12V (P01116 1-169 isoform P01116-2 G12V): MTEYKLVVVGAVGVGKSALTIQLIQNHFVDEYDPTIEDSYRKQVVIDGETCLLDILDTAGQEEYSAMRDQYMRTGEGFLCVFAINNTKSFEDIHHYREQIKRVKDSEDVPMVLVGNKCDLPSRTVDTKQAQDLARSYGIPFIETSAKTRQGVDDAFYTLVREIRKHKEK
Description: as §1

KRas G12R = KRas G12R (Homo sapiens, UniProt P01116, G12R); test: biochemical;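 further: TR-FRET displacement assay of compound binding to KRas, read after one hour at room temperature, potency from a four-parameter fit of percent-of-control values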
Chain of KRas G12R (P01116 1-169 isoform P01116-2 G12R): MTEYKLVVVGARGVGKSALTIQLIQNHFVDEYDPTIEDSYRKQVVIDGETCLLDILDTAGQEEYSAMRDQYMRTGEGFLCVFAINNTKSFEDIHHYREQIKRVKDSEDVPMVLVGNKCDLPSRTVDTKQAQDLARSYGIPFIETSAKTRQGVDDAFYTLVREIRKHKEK
Description: as §1

pERK in HCT116 cells = test: Inhibition of KRas phosphorylation of ERK (Cisbio HTRF pERK assay); settings: Homo sapiens, HCT-116, read-out: Inhibition (HTRF IC50) of KRas-mediated Phosphorylation of ERK, HCT116
pERK in H727 cells = test: as above; settings: Homo sapiens, NCI-H727, read-out: Inhibition (HTRF IC50) of KRas-mediated Phosphorylation of ERK, H727
pERK in PSN1 cells = test: as above; settings: Homo sapiens, PSN1, 3 h, read-out: Inhibition (HTRF IC50) of KRas-mediated Phosphorylation of ERK, PSN1
pERK in MKN1 cells = test: as above; settings: Homo sapiens, MKN-1, 3 h, read-out: Inhibition (HTRF IC50) of KRas-mediated Phosphorylation of ERK, MKN1

Chain of KRas G12D (P01116 1-169 isoform P01116-2 G12D): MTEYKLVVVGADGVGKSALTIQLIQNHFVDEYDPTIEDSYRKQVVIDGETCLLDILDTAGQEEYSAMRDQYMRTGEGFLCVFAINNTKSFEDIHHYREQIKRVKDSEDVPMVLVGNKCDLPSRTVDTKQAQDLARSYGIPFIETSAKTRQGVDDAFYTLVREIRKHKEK

SMILES	IC50 (KRas G12D)	IC50 (pERK in ASPC1 cells)	IC50 (KRas G12V)	IC50 (KRas G12R)	IC50 (pERK in HCT116 cells)	IC50 (pERK in H727 cells)	IC50 (pERK in PSN1 cells)	IC50 (pERK in MKN1 cells)
CCc1c(F)ccc2cc(O)cc(-c3ncc4c(NCCC5CNC(=O)C5)nc(OC[C@@]56CCCN5C[C@H](F)C6)nc4c3F)c12 (stereo partly drawn) [Example 376, 4-(2-((7-(8-ethyl-7-fluoro-3-hydroxynaphthalen-1-yl)-8-fluoro-2-(((2R,7aS)-2-fluorotetrahydro-1H-pyrrolizin-7a(5H)-yl)methoxy)pyrido[4,3-d]pyrimidin-4-yl)amino)ethyl)pyrrolidin-2-one]	0.016 µM	≥ 10 µM	0.003 µM	0.004 µM	6.49 µM			
O=C1NCC12CCCN(c1nc(OC[C@@]34CCCN3C[C@H](F)C4)nc3c(F)c(-c4cc(O)cc5ccc(F)c(Br)c45)ncc13)C2 (stereo partly drawn) [Example 406, 6-(7-(8-bromo-7-fluoro-3-hydroxynaphthalen-1-yl)-8-fluoro-2-(((2R,7aS)-2-fluorohexahydro-1H-pyrrolizin-7a-yl)methoxy)pyrido[4,3-d]pyrimidin-4-yl)-2,6-diazaspiro[3.5]nonan-1-one]	0.004 µM	0.88 µM	0.005 µM	0.011 µM		0.748 µM	≥ 10 µM	0.306 µM
CCc1c(F)ccc2cc(O)cc(-c3ncc4c(N5CCCC6(C5)C[S+]([O-])C6)nc(OC[C@@]56CCCN5C[C@H](F)C6)nc4c3F)c12 (stereo partly drawn) [Example 484, 6-(7-(8-ethyl-7-fluoro-3-hydroxynaphthalen-1-yl)-8-fluoro-2-(((2R,7aS)-2-fluorohexahydro-1H-pyrrolizin-7a-yl)methoxy)pyrido[4,3-d]pyrimidin-4-yl)-2-thia-6-azaspiro[3.5]nonane 2-oxide]	0.023 µM	4.86 µM	0.028 µM	0.048 µM		3.03 µM	≥ 10 µM	1.06 µM
CCc1c(F)ccc2cc(O)cc(-c3ncc4c(N5C[C@H](O)CC[C@H](O)C5)nc(OC[C@@]56CCCN5C[C@H](F)C6)nc4c3F)c12 [Example 491, (3R,6S)-1-(7-(8-ethyl-7-fluoro-3-hydroxynaphthalen-1-yl)-8-fluoro-2-(((2R,7aS)-2-fluorohexahydro-1H-pyrrolizin-7a-yl)methoxy)pyrido[4,3-d]pyrimidin-4-yl)azepane-3,6-diol]	0.004 µM	1.71 µM	0.004 µM	0.006 µM		1.53 µM	≥ 10 µM	0.182 µM
CCc1c(F)ccc2cc(O)cc(-c3ncc4c(N5CCOCC6(CCOCC6)C5)nc(OC[C@@]56CCCN5C[C@H](F)C6)nc4c3F)c12 [Example 500, 5-ethyl-6-fluoro-4-(8-fluoro-2-(((2R,7aS)-2-fluorohexahydro-1H-pyrrolizin-7a-yl)methoxy)-4-(3,8-dioxa-11-azaspiro[5.6]dodecan-11-yl)pyrido[4,3-d]pyrimidin-7-yl)naphthalen-2-ol]	0.235 µM	1.1 µM	0.104 µM	0.103 µM		1.9 µM	≥ 10 µM	0.239 µM
CCc1c(F)ccc2cc(O)cc(-c3ncc4c(N5CCCOC(C)(C)C5)nc(OC[C@@]56CCCN5C[C@H](F)C6)nc4c3F)c12 [Example 501, 4-(4-(2,2-dimethyl-1,4-oxazepan-4-yl)-8-fluoro-2-(((2R,7aS)-2-fluorohexahydro-1H-pyrrolizin-7a-yl)methoxy)pyrido[4,3-d]pyrimidin-7-yl)-5-ethyl-6-fluoronaphthalen-2-ol]	0.606 µM	2.06 µM	0.169 µM	0.176 µM		3.23 µM	≥ 10 µM	0.225 µM
CCc1c(F)ccc2cc(O)cc(-c3ncc4c(N5CCOC6(CCS(=O)(=O)CC6)C5)nc(OC[C@@]56CCCN5C[C@H](F)C6)nc4c3F)c12 [Example 502, 4-(7-(8-ethyl-7-fluoro-3-hydroxynaphthalen-1-yl)-8-fluoro-2-(((2R,7aS)-2-fluorohexahydro-1H-pyrrolizin-7a-yl)methoxy)pyrido[4,3-d]pyrimidin-4-yl)-1-oxa-9-thia-4-azaspiro[5.5]undecane 9,9-dioxide]	0.638 µM	2.1 µM	0.457 µM	0.607 µM		6.46 µM	≥ 10 µM	1.94 µM
CCc1c(F)ccc2cc(O)cc(-c3ncc4c(N5CCOC6(CCS(=N)(=O)CC6)C5)nc(OC[C@@]56CCCN5C[C@H](F)C6)nc4c3F)c12 (stereo partly drawn) [Example 503, 4-(7-(8-ethyl-7-fluoro-3-hydroxynaphthalen-1-yl)-8-fluoro-2-(((2R,7aS)-2-fluorohexahydro-1H-pyrrolizin-7a-yl)methoxy)pyrido[4,3-d]pyrimidin-4-yl)-9-imino-1-oxa-9-thia-4-azaspiro[5.5]undecane 9-oxide]	0.305 µM	≥ 10 µM	0.082 µM	0.124 µM		≥ 10 µM	≥ 10 µM	≥ 10 µM

The next compounds have a lower IC50 (KRas G12D) than those just listed; values first:

IC50 (KRas G12D)	IC50 (pERK in ASPC1 cells)	IC50 (KRas G12V)	IC50 (KRas G12R)	IC50 (pERK in HCT116 cells)	IC50 (pERK in H727 cells)	IC50 (pERK in PSN1 cells)	IC50 (pERK in MKN1 cells)	SMILES
≤ 0.002 µM	9.38 µM	0.009 µM	0.015 µM	≥ 10 µM				CCc1c(F)ccc2cc(O)cc(-c3ncc4c(NCC(N)CC(=O)O)nc(OC[C@@]56CCCN5C[C@H](F)C6)nc4c3F)c12 (single isomer, unassigned) [Example 374]
≤ 0.002 µM	0.721 µM	≤ 0.002 µM	≤ 0.002 µM		0.57 µM	≥ 10 µM	0.351 µM	Nc1cc2n(n1)CCCN(c1nc(OC[C@@]34CCCN3C[C@H](F)C4)nc3c(F)c(-c4cc(O)cc5ccc(F)c(Br)c45)ncc13)C2 [Example 408, 4-(4-(2-amino-7,8-dihydro-4H-pyrazolo[1,5-a][1,4]diazepin-5(6H)-yl)-8-fluoro-2-(((2R,7aS)-2-fluorohexahydro-1H-pyrrolizin-7a-yl)methoxy)pyrido[4,3-d]pyrimidin-7-yl)-5-bromo-6-fluoronaphthalen-2-ol]
≤ 0.002 µM	0.556 µM	≤ 0.002 µM	≤ 0.002 µM		2.22 µM	≥ 10 µM	0.11 µM	O=C1NC(=O)C2CN(c3nc(OC[C@@]45CCCN4C[C@H](F)C5)nc4c(F)c(-c5cc(O)cc6ccc(F)c(Cl)c56)ncc34)CC12 (stereo partly drawn) [Example 423, 5-(7-(8-chloro-7-fluoro-3-hydroxynaphthalen-1-yl)-8-fluoro-2-(((2R,7aS)-2-fluorohexahydro-1H-pyrrolizin-7a-yl)methoxy)pyrido[4,3-d]pyrimidin-4-yl)tetrahydropyrrolo[3,4-c]pyrrole-1,3(2H,3aH)-dione]
0.003 µM	0.817 µM	0.004 µM	0.008 µM		1.3 µM	2.81 µM	0.095 µM	O=C1NCC12CCCN(c1nc(OC[C@@]34CCCN3C[C@H](F)C4)nc3c(F)c(-c4cc(O)cc5ccc(F)c(Cl)c45)ncc13)C2 (stereo partly drawn) [Example 424, 6-(7-(8-chloro-7-fluoro-3-hydroxynaphthalen-1-yl)-8-fluoro-2-(((2R,7aS)-2-fluorohexahydro-1H-pyrrolizin-7a-yl)methoxy)pyrido[4,3-d]pyrimidin-4-yl)-2,6-diazaspiro[3.5]nonan-1-one]
≤ 0.002 µM	0.652 µM	≤ 0.002 µM	≤ 0.002 µM		1.22 µM	≥ 10 µM	0.264 µM	Nc1cc2n(n1)CCCN(c1nc(OC[C@@]34CCCN3C[C@H](F)C4)nc3c(F)c(-c4cc(O)cc5ccc(F)c(Cl)c45)ncc13)C2 [Example 426, 4-(4-(2-amino-7,8-dihydro-4H-pyrazolo[1,5-a][1,4]diazepin-5(6H)-yl)-8-fluoro-2-(((2R,7aS)-2-fluorohexahydro-1H-pyrrolizin-7a-yl)methoxy)pyrido[4,3-d]pyrimidin-7-yl)-5-chloro-6-fluoronaphthalen-2-ol]
≤ 0.002 µM	1.31 µM	≤ 0.002 µM	0.003 µM		0.869 µM	≥ 10 µM	0.221 µM	CCc1c(F)ccc2cc(O)cc(-c3ncc4c(N5CCCC6(CC(=O)N6)C5)nc(OCC5(CN(C)C)CC5)nc4c3F)c12 (centres unmarked) [Example 513, 6-(2-((1-((dimethylamino)methyl)cyclopropyl)methoxy)-7-(8-ethyl-7-fluoro-3-hydroxynaphthalen-1-yl)-8-fluoropyrido[4,3-d]pyrimidin-4-yl)-1,6-diazaspiro[3.5]nonan-2-one]
≤ 0.002 µM	0.203 µM	0.003 µM	0.006 µM		0.321 µM	≥ 10 µM	0.042 µM	CN(C)CC1(COc2nc(N3CCC[C@@](C)(O)C3)c3cnc(-c4cc(O)cc(Cl)c4C4CC4)c(F)c3n2)CC1 [Example 517, (R)-1-(7-(3-chloro-2-cyclopropyl-5-hydroxyphenyl)-2-((1-((dimethylamino)methyl)cyclopropyl)methoxy)-8-fluoropyrido[4,3-d]pyrimidin-4-yl)-3-methylpiperidin-3-ol]
